Counter-ions that a name gives are not always drawn.
Experiments:
[1] = biological target: T1, Adrenergic β2 (H292 cells) (Homo sapiens, UniProt P07550); assay: Assay for Adrenergic β2 Mediated cAMP Production (concentration response, AlphaScreen cAMP detection); assay type: cell-based; conditions: for EC50: cAMP production, 60 minutes at room temperature, 300 μM rolipram, read-out: β2 pEC50 (converted); for β2 Intrinsic activity: fraction relative to the maximum activity determined for formoterol
T1 construct: endogenous in cells; host or cells: H292 cells
How it was run: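 Intrinsic activity is relative to the per-experiment formoterol maximum, with pEC50 from a four-parameter logistic fit of cAMP levels quantified by AlphaScreen against standards. Cells (H292) got 300 μM rolipram for 10 min, then compound for 60 min at room temperature, 1% DMSO final.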

[2] = biological target: T2, human muscarinic acetylcholine M3 receptor (M3-ACh) (Homo sapiens, UniProt P20309); assay: Muscarinic 3 Receptor Binding Assay ([3H]NMS competition, SPA); conditions: [3H]NMS 0.1 nM, CHO-K1 cell membranes, 16 hours at room temperature; read-out: M3 pIC50 (converted)
T2 construct: expressed in transfected cells; host or cells: CHO-K1 (Chinese Hamster Ovary) cell membranes
How it was run: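 Competition SPA binding of 0.1 nM [3H]NMS (quarter Kd) to membranes from CHO-K1 cells expressing human M3, in 20 mM HEPES pH 7.4, 5 mM MgCl2, 1% DMSO. Incubated 16 h at room temperature; non-specific binding with 1 µM atropine. pIC50 from 50% reduction of specific binding.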

T2 sequence (P20309 whole entry): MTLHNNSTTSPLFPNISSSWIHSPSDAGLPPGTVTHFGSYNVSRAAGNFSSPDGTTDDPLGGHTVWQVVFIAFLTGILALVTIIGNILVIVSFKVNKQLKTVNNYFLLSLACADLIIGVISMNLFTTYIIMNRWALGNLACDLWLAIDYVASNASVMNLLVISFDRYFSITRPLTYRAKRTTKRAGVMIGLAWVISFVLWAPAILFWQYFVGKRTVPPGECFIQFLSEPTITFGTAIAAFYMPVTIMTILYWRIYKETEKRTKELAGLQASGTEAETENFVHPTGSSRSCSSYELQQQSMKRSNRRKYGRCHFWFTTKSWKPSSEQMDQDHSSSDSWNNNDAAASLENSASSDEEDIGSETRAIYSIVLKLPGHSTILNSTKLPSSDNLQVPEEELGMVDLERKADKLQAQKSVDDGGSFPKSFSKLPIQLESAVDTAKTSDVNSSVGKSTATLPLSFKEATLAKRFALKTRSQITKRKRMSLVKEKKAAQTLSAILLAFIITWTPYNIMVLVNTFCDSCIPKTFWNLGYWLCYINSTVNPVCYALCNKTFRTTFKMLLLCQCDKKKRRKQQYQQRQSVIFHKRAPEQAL
T1 sequence (P07550 whole entry): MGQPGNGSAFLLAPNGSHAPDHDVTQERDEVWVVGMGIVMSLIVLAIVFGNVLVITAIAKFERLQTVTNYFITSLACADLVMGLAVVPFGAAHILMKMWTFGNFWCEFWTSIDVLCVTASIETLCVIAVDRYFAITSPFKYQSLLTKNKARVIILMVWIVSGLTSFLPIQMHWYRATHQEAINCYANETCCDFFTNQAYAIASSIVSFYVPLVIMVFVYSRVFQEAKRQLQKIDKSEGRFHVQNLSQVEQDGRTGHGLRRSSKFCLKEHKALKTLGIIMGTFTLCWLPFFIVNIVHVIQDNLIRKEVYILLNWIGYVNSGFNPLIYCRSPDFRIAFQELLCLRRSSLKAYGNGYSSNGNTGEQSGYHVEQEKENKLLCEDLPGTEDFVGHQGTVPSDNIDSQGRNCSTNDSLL

Row | EC50 [1] [nM] | β2 Intrinsic activity [1] | IC50 [2] [nM] | Structure (SMILES)
1 | 5.01 | 0.9 | 0.794 | CC(C)c1nc(C(=O)N2CCOC3(CCN(Cc4cccc(CCNC[C@H](O)c5ccc(O)c6[nH]c(=O)sc56)c4F)CC3)C2)cs1 [Example 48, (R)-7-(2-(2-Fluoro-3-((4-(2-isopropylthiazole-4-carbonyl)-1-oxa-4,9-diazaspiro[5.5]undecan-9-yl)methyl)phenethylamino)-1-hydroxyethyl)-4-hydroxybenzo[d]thiazol-2(3H)-one ditrifluoroacetate]
2 | 7.94 | 0.9 | 39.8 | Cc1nc2cc(C(=O)N3CCOC4(CCN(Cc5cc(CCNC[C@H](O)c6ccc(O)c7[nH]c(=O)sc67)cs5)CC4)C3)ccc2s1 [Example 49, (R)-4-Hydroxy-7-(1-hydroxy-2-(2-(5-((4-(2-methylbenzo[d]thiazole-5-carbonyl)-1-oxa-4,9-diazaspiro[5.5]undecan-9-yl)methyl)thiophen-3-yl)ethylamino)ethyl)benzo[d]thiazol-2(3H)-one ditrifluoroacetate]
3 | 200 | 0.9 | 1 | CC(C)c1nc(C(=O)N2CCOC3(CCN(CCCCCC(C)(C)CNC[C@H](O)c4ccc(O)c5[nH]c(=O)sc45)CC3)C2)cs1 [Example 102, (R)-4-Hydroxy-7-(1-hydroxy-2-(7-(4-(2-isopropylthiazole-4-carbonyl)-1-oxa-4,9-diazaspiro[5.5]undecan-9-yl)-2,2-dimethylheptylamino)ethyl)benzo[d]thiazol-2(3H)-one formate]
4 | 6.31 | 0.9 | 126 | O=C(c1cc2ccccc2s1)N1CCOC2(CCN(Cc3cccc(CCNC[C@H](O)c4ccc(O)c5[nH]c(=O)sc45)c3F)CC2)C1 [Example 79, (R)-7-(2-(3-((4-(Benzo[b]thiophene-2-carbonyl)-1-oxa-4,9-diazaspiro[5.5]undecan-9-yl)methyl)-2-fluorophenethylamino)-1-hydroxyethyl)-4-hydroxybenzo[d]thiazol-2(3H)-one ditrifluoroacetate]
5 | 20 | 0.8 | 20 | O=C(c1csc(-c2ccccc2)n1)N1CCOC2(CCN(CCCCCCCCCNC[C@H](O)c3ccc(O)c4[nH]c(=O)sc34)CC2)C1 [Example 113, (R)-4-Hydroxy-7-(1-hydroxy-2-(9-(4-(2-phenylthiazole-4-carbonyl)-1-oxa-4,9-diazaspiro[5.5]undecan-9-yl)nonylamino)ethyl)benzo[d]thiazol-2(3H)-one formate]
6 | 63.1 | 0.8 | 3.16 | Cc1nc(C(=O)N2CCOC3(CCN(CCOc4ccc(CNC[C@H](O)c5ccc(O)c6[nH]c(=O)sc56)cc4)CC3)C2)cs1 [Example 1, (R)-4-Hydroxy-7-(1-hydroxy-2-(4-(2-(4-(2-methylthiazole-4-carbonyl)-1-oxa-4,9-diazaspiro[5.5]undecan-9-yl)ethoxy)benzylamino)ethyl)benzo[d]thiazol-2(3H)-one ditrifluoroacetate]
7 | 3.16 | 1.1 | 39.8 | Cc1ccc(C(=O)N2CCOC3(CCN(Cc4cc(CCNC[C@H](O)c5ccc(O)c6[nH]c(=O)sc56)cc(F)c4F)CC3)C2)s1 [Example 32, (R)-7-(2-(3,4-Difluoro-5-((4-(5-methylthiophene-2-carbonyl)-1-oxa-4,9-diazaspiro[5.5]undecan-9-yl)methyl)phenethylamino)-1-hydroxyethyl)-4-hydroxybenzo[d]thiazol-2(3H)-one ditrifluoroacetate]
8 | 7.94 | 0.8 | 1.58 | CCc1cc(C(=O)N2CCOC3(CCN(Cc4ccc(F)c(CCNC[C@H](O)c5ccc(O)c6[nH]c(=O)sc56)c4)CC3)C2)cs1 [Example 99, (R)-7-(2-(5-((4-(5-Ethylthiophene-3-carbonyl)-1-oxa-4,9-diazaspiro[5.5]undecan-9-yl)methyl)-2-fluorophenethylamino)-1-hydroxyethyl)-4-hydroxybenzo[d]thiazol-2(3H)-one ditrifluoroacetate]
9 | 100 | 0.9 | 0.316 | CC(C)c1nc(C(=O)N2CCOC3(CCN(Cc4cccc(C(F)CNC[C@H](O)c5ccc(O)c6[nH]c(=O)sc56)c4)CC3)C2)cs1 (stereo partly drawn) [Example 39, 7-((1R)-2-(2-Fluoro-2-(3-((4-(2-isopropylthiazole-4-carbonyl)-1-oxa-4,9-diazaspiro[5.5]undecan-9-yl)methyl)phenyl)ethylamino)-1-hydroxyethyl)-4-hydroxybenzo[d]thiazol-2(3H)-one ditrifluoroacetate]
10 | 15.8 | 1 | 7.94 | O=C(c1csc(C2CCCC2)n1)N1CCOC2(CCN(Cc3cc(F)cc(CCNC[C@H](O)c4ccc(O)c5[nH]c(=O)sc45)c3)CC2)C1 [Example 59, (R)-7-(2-(3-((4-(2-Cyclopentylthiazole-4-carbonyl)-1-oxa-4,9-diazaspiro[5.5]undecan-9-yl)methyl)-5-fluorophenethylamino)-1-hydroxyethyl)-4-hydroxybenzo[d]thiazol-2(3H)-one ditrifluoroacetate]
11 | 5.01 | 0.9 | 1.58 | CCc1cc(C(=O)N2CCOC3(CCN(Cc4cc(CCNC[C@H](O)c5ccc(O)c6[nH]c(=O)sc56)ccc4F)CC3)C2)cs1 [Example 100, (R)-7-(2-(3-((4-(5-Ethylthiophene-3-carbonyl)-1-oxa-4,9-diazaspiro[5.5]undecan-9-yl)methyl)-4-fluorophenethylamino)-1-hydroxyethyl)-4-hydroxybenzo[d]thiazol-2(3H)-one ditrifluoroacetate]
12 | 10 | 0.8 | 5.01 | CC(C)c1nc(C(=O)N2CCOC3(CCN(Cc4ccc(F)c(CCNC[C@H](O)c5ccc(O)c6[nH]c(=O)sc56)c4F)CC3)C2)cs1 [Example 45, (R)-7-(2-(2,6-Difluoro-3-((4-(2-isopropylthiazole-4-carbonyl)-1-oxa-4,9-diazaspiro[5.5]undecan-9-yl)methyl)phenethylamino)-1-hydroxyethyl)-4-hydroxybenzo[d]thiazol-2(3H)-one ditrifluoroacetate]

Row | Structure (SMILES) | EC50 [1] [nM] | β2 Intrinsic activity [1] | IC50 [2] [nM]
13 | O=C(c1csc(C(F)(F)F)n1)N1CCOC2(CCN(Cc3cccc(CCNC[C@H](O)c4ccc(O)c5[nH]c(=O)sc45)c3)CC2)C1 [Example 26, (R)-4-Hydroxy-7-(1-hydroxy-2-(3-((4-(2-(trifluoromethyl)thiazole-4-carbonyl)-1-oxa-4,9-diazaspiro[5.5]undecan-9-yl)methyl)phenethylamino)ethyl)benzo[d]thiazol-2(3H)-one ditrifluoroacetate] | 12.6 | 0.8 | 0.631
14 | Cc1nc(C(=O)N2CCOC3(CCN(CCCOc4cccc(CNC[C@H](O)c5ccc(O)c6[nH]c(=O)ccc56)c4)CC3)C2)cs1 [Example 95, (R)-8-Hydroxy-5-(1-hydroxy-2-(3-(3-(4-(2-methylthiazole-4-carbonyl)-1-oxa-4,9-diazaspiro[5.5]undecan-9-yl)propoxy)benzylamino)ethyl)quinolin-2(1H)-one ditrifluoroacetate] | > 3200 | NV* (inactive up to a max concentration of 3.2 μM of test compound) | 1.58
